# Several values for one entry are separate records, joined by “and”; a condition that tells them apart may be missing. Identical values can stand only once.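 Test compounds were applied to cells in 96-well plates for 48 hours at 5 doses. The concentration for 50% growth inhibition is given as GI50.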 Activity calls are given as the source filed them. Rule as the data show it: active = GI50 up to about 1.1 µM and inactive = higher.
# Experiments:
# Assay in all cases: inhibition of tumour cell growth, NCI panel, 48 h
# [1] = tested on: A549
# [2] = tested on: ACHN
# [3] = tested on: BT-549
# [4] = tested on: CAKI-1
# [5] = tested on: CCRF-CEM
# [6] = tested on: COLO 205
# [7] = tested on: DLD-1
# [8] = tested on: DMS-114
# [9] = tested on: DMS-273
# [10] = tested on: DU-145
# [11] = tested on: EKVX
# [12] = tested on: HCC 2998
# [13] = tested on: HL-60
# [14] = tested on: HOP-18
# [15] = tested on: HT-29
# [16] = tested on: Hs-578T
# [17] = tested on: IGROV-1
# [18] = tested on: K562
# [19] = tested on: KM-20L2
# [20] = tested on: KM12
# [21] = tested on: LOX IMVI
# [22] = tested on: LXFL 529
# [23] = tested on: M19-MEL
# [24] = tested on: MCF7
# [25] = tested on: MDA-MB-231
# [26] = tested on: MDA-MB-435
# [27] = tested on: MDA-N
# [28] = tested on: MOLT-4
# [29] = tested on: NCI-H226
# [30] = tested on: NCI-H23
# [31] = tested on: NCI-H522
# [32] = tested on: NCI/ADR-RES
# [33] = tested on: OVCAR-3
# [34] = tested on: OVCAR-4
# [35] = tested on: OVCAR-5
# [36] = tested on: OVCAR-8
# [37] = tested on: PC-3
# [38] = tested on: RPMI-8226
# [39] = tested on: RXF 631
# [40] = tested on: SF-268
# [41] = tested on: SF-295
# [42] = tested on: SF-539
# [43] = tested on: SK-MEL-2
# [44] = tested on: SK-MEL-5
# [45] = tested on: SNB-75
# [46] = tested on: SNB-78
# [47] = tested on: SW-620
# [48] = tested on: T47D
# [49] = tested on: TK-10
# [50] = tested on: XF498
# [51] = tested on: 786-0
# [52] = tested on: A498
# [53] = tested on: HCT-116
# [54] = tested on: HCT-15
# [55] = tested on: HOP-62
# [56] = tested on: HOP-92
# [57] = tested on: M14
# [58] = tested on: Malme-3M
# [59] = tested on: NCI-H460
# [60] = tested on: RXF 393
# [61] = tested on: SK-MEL-28
# [62] = tested on: SK-OV-3
# [63] = tested on: SN12C
# [64] = tested on: SNB-19
# [65] = tested on: SR
# [66] = tested on: U-251
# [67] = tested on: UACC-257
# [68] = tested on: UACC-62
# [69] = tested on: UO-31
smiles,measurement,setting,value
COc1cc(NC(C)CCCN)c2ncccc2c1 (stereo not drawn) [PRIMAQUINE PHOSPHATE],GI50,[1],> 100 µM (inactive)
same,GI50,[2],51.6 µM (inactive) and 82 µM (inactive)
same,GI50,[3],41.1 µM (inactive)
same,GI50,[4],59 µM (inactive) and 62.4 µM (inactive)
same,GI50,[5],26.7 µM (inactive) and 45.8 µM (inactive)
same,GI50,[6],17.8 µM (inactive) and 32.5 µM (inactive)
same,GI50,[7],76.6 µM (inactive)
same,GI50,[8],37.7 µM (inactive)
same,GI50,[9],> 100 µM (inactive)
same,GI50,[10],99.1 µM (inactive)
same,GI50,[11],> 66.1 µM (inactive) and 77.3 µM (inactive)
same,GI50,[12],28.2 µM (inactive) and 16.9 µM (inactive)
same,GI50,[13],8.17 µM (inactive) and 10.4 µM (inactive)
same,GI50,[14],> 36.1 µM (inactive)
same,GI50,[15],37.1 µM (inactive) and 28.8 µM (inactive)
same,GI50,[16],39.4 µM (inactive)
same,GI50,[17],51.4 µM (inactive) and > 88.7 µM (inactive)
same,GI50,[18],28.9 µM (inactive) and 20.9 µM (inactive)
same,GI50,[19],57.5 µM (inactive)
same,GI50,[20],> 81.5 µM (inactive) and 73.3 µM (inactive)
same,GI50,[21],43.9 µM (inactive) and 51.4 µM (inactive)
same,GI50,[22],60.7 µM (inactive)
same,GI50,[23],47.5 µM (inactive)
same,GI50,[24],16.4 µM (inactive)
same,GI50,[25],43.7 µM (inactive)
same,GI50,[26],38 µM (inactive)
same,GI50,[27],29.6 µM (inactive)
same,GI50,[28],25.2 µM (inactive) and 39.4 µM (inactive)
same,GI50,[29],> 68.5 µM (inactive) and 97.9 µM (inactive)
same,GI50,[30],> 100 µM (inactive) and > 90.6 µM (inactive)
same,GI50,[31],90.6 µM (inactive) and 52.1 µM (inactive)
same,GI50,[32],> 100 µM (inactive)
same,GI50,[33],22.6 µM (inactive) and 43.7 µM (inactive)
same,GI50,[34],> 88.3 µM (inactive)
same,GI50,[35],> 91 µM (inactive) and > 83.4 µM (inactive)
same,GI50,[36],70.6 µM (inactive) and 63.1 µM (inactive)
same,GI50,[37],33.6 µM (inactive)
same,GI50,[38],42.8 µM (inactive) and 22.6 µM (inactive)
same,GI50,[39],> 91.2 µM (inactive)
same,GI50,[40],94.4 µM (inactive) and 79.3 µM (inactive)
same,GI50,[41],98.2 µM (inactive) and 52.4 µM (inactive)
same,GI50,[42],> 100 µM (inactive)
same,GI50,[43],26.9 µM (inactive) and 45.1 µM (inactive)
same,GI50,[44],29.8 µM (inactive) and 17.8 µM (inactive)
same,GI50,[45],47.2 µM (inactive) and 24.1 µM (inactive)
same,GI50,[46],> 100 µM (inactive)
same,GI50,[47],52.2 µM (inactive) and 73.8 µM (inactive)
same,GI50,[48],16 µM (inactive)
same,GI50,[49],49.8 µM (inactive) and > 94.4 µM (inactive)
same,GI50,[50],35 µM (inactive)
CCCCCCCCCCCCNC(=S)OCCCC,GI50,[51],> 100 µM (inactive)
same,GI50,[52],> 100 µM (inactive)
same,GI50,[1],> 100 µM (inactive)
same,GI50,[2],> 100 µM (inactive)
same,GI50,[4],> 100 µM (inactive)
same,GI50,[5],29.4 µM (inactive)
same,GI50,[7],> 100 µM (inactive)
same,GI50,[8],34.8 µM (inactive)
same,GI50,[9],> 100 µM (inactive)
same,GI50,[11],> 100 µM (inactive)
same,GI50,[12],> 100 µM (inactive)
same,GI50,[53],50.7 µM (inactive)
same,GI50,[54],> 100 µM
same,GI50,[13],16.4 µM (inactive)
same,GI50,[14],> 100 µM (inactive)
same,GI50,[55],> 100 µM (inactive)
same,GI50,[56],> 100 µM (inactive)
same,GI50,[15],72.3 µM (inactive)
same,GI50,[17],> 100 µM (inactive)
same,GI50,[18],65.3 µM (inactive)
same,GI50,[19],> 100 µM (inactive)
same,GI50,[20],28 µM (inactive)
same,GI50,[21],15.8 µM (inactive)
same,GI50,[22],> 100 µM (inactive)
same,GI50,[57],> 100 µM (inactive)
same,GI50,[23],42.2 µM (inactive)
same,GI50,[28],17.9 µM (inactive)
same,GI50,[58],> 100 µM (inactive)
same,GI50,[30],> 100 µM (inactive)
same,GI50,[59],> 100 µM (inactive)
same,GI50,[31],> 100 µM (inactive)
same,GI50,[34],> 100 µM (inactive)
same,GI50,[35],31.8 µM (inactive)
same,GI50,[36],> 100 µM (inactive)
same,GI50,[38],15.7 µM (inactive)
same,GI50,[60],> 100 µM (inactive)
same,GI50,[39],> 100 µM (inactive)
same,GI50,[40],> 100 µM (inactive)
same,GI50,[41],> 100 µM (inactive)
same,GI50,[42],> 100 µM (inactive)
same,GI50,[61],76.6 µM (inactive)
same,GI50,[43],17.2 µM (inactive)
same,GI50,[44],81.3 µM (inactive)
same,GI50,[62],> 100 µM (inactive)
same,GI50,[63],59.2 µM (inactive)
same,GI50,[64],> 100 µM (inactive)
same,GI50,[45],> 100 µM (inactive)
same,GI50,[46],> 100 µM (inactive)
same,GI50,[65],30.1 µM (inactive)
same,GI50,[47],> 100 µM (inactive)
same,GI50,[49],19.7 µM (inactive)
same,GI50,[66],63.7 µM (inactive)
same,GI50,[67],35.7 µM (inactive)
same,GI50,[68],> 100 µM (inactive)
same,GI50,[69],> 100 µM (inactive)
same,GI50,[50],> 100 µM (inactive)
NCCSSCc1ccccc1CSSCCN,GI50,[51],> 100 µM (inactive)
same,GI50,[52],> 100 µM (inactive)
same,GI50,[1],> 100 µM (inactive)
same,GI50,[2],8.65 µM (inactive)
same,GI50,[4],> 100 µM (inactive)
same,GI50,[6],> 100 µM (inactive)
same,GI50,[7],48.4 µM (inactive)
same,GI50,[8],> 100 µM (inactive)
same,GI50,[9],48.9 µM (inactive)
same,GI50,[11],> 100 µM (inactive)
same,GI50,[12],50.1 µM (inactive)
same,GI50,[53],> 100 µM (inactive)
same,GI50,[54],38.5 µM
same,GI50,[13],8.02 µM (inactive)
same,GI50,[14],> 100 µM (inactive)
same,GI50,[55],> 100 µM (inactive)
same,GI50,[56],> 100 µM (inactive)
same,GI50,[15],97.1 µM (inactive)
same,GI50,[17],> 100 µM (inactive)
same,GI50,[18],16.4 µM (inactive)
same,GI50,[19],> 100 µM (inactive)
same,GI50,[20],> 100 µM (inactive)
same,GI50,[21],14 µM (inactive)
same,GI50,[22],50 µM (inactive)
same,GI50,[57],> 100 µM (inactive)
same,GI50,[23],29.2 µM (inactive)
same,GI50,[28],30.5 µM (inactive)
same,GI50,[58],72.3 µM (inactive)
same,GI50,[29],> 100 µM (inactive)
same,GI50,[30],> 100 µM (inactive)
same,GI50,[59],> 100 µM (inactive)
same,GI50,[31],14.1 µM (inactive)
same,GI50,[33],> 100 µM (inactive)
same,GI50,[34],> 100 µM (inactive)
same,GI50,[35],> 100 µM (inactive)
same,GI50,[36],66.2 µM (inactive)
same,GI50,[38],67.8 µM (inactive)
same,GI50,[60],> 100 µM (inactive)
same,GI50,[39],> 100 µM (inactive)
same,GI50,[40],> 100 µM (inactive)
same,GI50,[41],> 100 µM (inactive)
same,GI50,[42],> 100 µM (inactive)
same,GI50,[61],> 100 µM (inactive)
same,GI50,[44],57.9 µM (inactive)
same,GI50,[62],> 100 µM (inactive)
same,GI50,[63],> 100 µM (inactive)
same,GI50,[64],> 100 µM (inactive)
same,GI50,[45],> 100 µM (inactive)
same,GI50,[46],> 100 µM (inactive)
same,GI50,[65],41.7 µM (inactive)
same,GI50,[47],20.4 µM (inactive)
same,GI50,[49],> 100 µM (inactive)
same,GI50,[66],> 100 µM (inactive)
same,GI50,[67],> 100 µM (inactive)
same,GI50,[68],> 100 µM (inactive)
same,GI50,[69],> 100 µM (inactive)
same,GI50,[50],> 100 µM (inactive)
